In patent EP1220845B1, “ARYL-SULFONAMIDE SUBSTITUTED BENZIMIDAZOL DERIVATIVES AND USE OF SAID AS TRYPTASE INHIBITORS” (Boehringer Ingelheim Pharma GmbH & Co.KG, priority 1999, dated 2001):
Counter-ions that a name gives are not always drawn.

Target: T1, rh beta Tryptase (Homo sapiens, UniProt Q15661)
T1 construct: purchased Promega
Test: Tryptase inhibition test (cleavage of chromogenic substrate, p-nitroaniline read at 405 nm)
Type: biochemical
Conditions: Tris HCl buffer 100 mM, calcium 5 mM, heparin, pH 7.4, 37°C; substrate N-p-Tosyl-Gly-Pro-Lys-para-nitroanilin 0.6 mM; 5 min preincubation, 5 min incubation; 0.91 U/ml enzyme
Procedure: Die erfindungsgemäßen Verbindungen zeichnen sich durch ihre Tryptase-inhibierende Wirksamkeit aus. Besagte Fähigkeit, die Tryptase zu inhibieren, wurde gemäß der nachfolgenden Testbeschreibung untersucht. Die Bestimmung wird in Tris HCI Puffer (100 mM), der zusätzlich Calcium (5 mM) und Heparin ([…]) enthält, bei pH 7.4 durchgeführt. Als Standard wird rh beta Tryptase eingesetzt, die beispielsweise von Promega käuflich zu erwerben ist. Als Substrat dient N-p-Tosyl-[…]-nitroanilin in einer Konzentration von 0.6 mM. Das Substrat wird durch Tryptase verdaut wobei p-Nitroanilin entsteht, das bei 405 nm gemessen werden kann. Üblicherweise wird eine Inkubationszeit von 5 Minuten und eine Inkubationstemperatur von 37°C gewählt. Als Enzymaktivität werden 0.91 U/ml eingesetzt. Die Bestimmung erfolgt in einem Autoanalyser (Cobas Bio) der Firma Hofmann LaRoche. Die potentiellen Hemmsubstanzen werden in Konzentrationen von 10 μM im Screening eingesetzt, wobei die Hemmung der Tryptase in Prozent angegeben wird. […] Nach 5-minütiger Vorinkubation der potentiellen Hemmsubstanzen, wird das Substrat zum […] Reaktion zugegeben, wobei die Bildung von p-Nitroanilin […]. […]

T1 sequence (Q15661 31-275): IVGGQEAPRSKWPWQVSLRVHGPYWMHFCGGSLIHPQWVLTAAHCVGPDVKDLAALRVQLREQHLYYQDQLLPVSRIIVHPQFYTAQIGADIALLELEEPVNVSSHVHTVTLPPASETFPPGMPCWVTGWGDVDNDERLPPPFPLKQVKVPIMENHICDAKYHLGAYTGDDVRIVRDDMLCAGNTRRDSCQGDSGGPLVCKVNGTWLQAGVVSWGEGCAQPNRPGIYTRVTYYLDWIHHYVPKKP

IC50: 0.011 µM
SMILES: CCN(CC)CCN(c1ccc2c(c1)nc(CCc1ccc(C(=N)N)cc1)n2C)S(=O)(=O)c1cccc2c(N(C)C)cccc12 [Beispiel 2, N-{2-[2-(4-Amidinophenyl)ethyl]-1-methyl-benzimidazol-5-yl}-N-diethylaminoethyl-(dansylamid)-dihydrochlorid]
